# Legend:
# Assay in all cases: Greenhouse herbicidal activity assay, post-emergence
# Assay type in all cases: in vivo
# Cyperus iria = details: Post-emergence test, rate 150 g a.i./hm^2, grade by fresh weight inhibition rate; for pest or weed control at 150 g/ha: Cyperus iria, read-out: Control efficacy grade, Cyperus iria
# Procedure, shortened: (§1)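 Scores reflect fresh weight inhibition assessed 14-21 days after treatment, with grade A meaning ≥80% to 100% and grade E meaning <20%. Plants, raised in nutrient-soil pots inside a growth chamber, were sprayed on the foliage at the 3-6 leaf stage.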
# Leptochloa chinensis = details: Post-emergence test, rate 150 g a.i./hm^2, grade by fresh weight inhibition rate; for pest or weed control at 150 g/ha: Dinebra chinensis, read-out: Control efficacy grade, Leptochloa chinensis
# Procedure, shortened: as §1
# Echinochloa crusgalli = details: Post-emergence test, rate 150 g a.i./hm^2, grade by fresh weight inhibition rate; for pest or weed control at 150 g/ha: Echinochloa crus-galli, read-out: Control efficacy grade, Echinochloa crusgalli
# Procedure, shortened: as §1
# Eclipta prostrata = details: Post-emergence test, rate 150 g a.i./hm^2, grade by fresh weight inhibition rate; for pest or weed control at 150 g/ha: Eclipta prostrata, read-out: Control efficacy grade, Eclipta prostrata
# Procedure, shortened: as §1
# Digitaria sanguinalis = details: Post-emergence test, rate 150 g a.i./hm^2, grade by fresh weight inhibition rate; for pest or weed control at 150 g/ha: Digitaria sanguinalis, read-out: Control efficacy grade, Digitaria sanguinalis
# Procedure, shortened: as §1
Structure (SMILES),"Control efficacy grade, Cyperus iria (Cyperus iria)","Control efficacy grade, Leptochloa chinensis (Leptochloa chinensis)","Control efficacy grade, Echinochloa crusgalli (Echinochloa crusgalli)","Control efficacy grade, Eclipta prostrata (Eclipta prostrata)","Control efficacy grade, Digitaria sanguinalis (Digitaria sanguinalis)",pest or weed control at 150 g/ha (Cyperus iria) [%],pest or weed control at 150 g/ha (Leptochloa chinensis) [%],pest or weed control at 150 g/ha (Echinochloa crusgalli) [%],pest or weed control at 150 g/ha (Eclipta prostrata) [%],pest or weed control at 150 g/ha (Digitaria sanguinalis) [%]
Cc1nnc(NC(=O)c2ccc(S(C)(=O)=O)c([S+]([O-])CC(F)F)c2Cl)o1 (racemic) [Compound 3-103],A (Fresh weight inhibition rate≥80% to 100%),A (Fresh weight inhibition rate≥80% to 100%),A (Fresh weight inhibition rate≥80% to 100%),A (Fresh weight inhibition rate≥80% to 100%),A (Fresh weight inhibition rate≥80% to 100%),–,–,–,–,–
Cn1ncnc1NC(=O)c1ccc(S(C)(=O)=O)c(SC2CCC2)c1Cl [Compound 2-37],A (Fresh weight inhibition rate≥80% to 100%),A (Fresh weight inhibition rate≥80% to 100%),A (Fresh weight inhibition rate≥80% to 100%),A (Fresh weight inhibition rate≥80% to 100%),B (Fresh weight inhibition rate≥260% to <80%),–,–,–,–,–
CCC[S+]([O-])c1c(S(C)(=O)=O)ccc(C(=O)Nc2ncnn2C)c1Cl (racemic) [Compound 2-2],A (Fresh weight inhibition rate≥80% to 100%),A (Fresh weight inhibition rate≥80% to 100%),A (Fresh weight inhibition rate≥80% to 100%),A (Fresh weight inhibition rate≥80% to 100%),A (Fresh weight inhibition rate≥80% to 100%),–,–,–,–,–
CC(C)c1nnc(NC(=O)c2ccc(S(C)(=O)=O)c([S+]([O-])CC(F)(F)F)c2Cl)o1 (racemic) [Compound 3-556],A (Fresh weight inhibition rate≥80% to 100%),A (Fresh weight inhibition rate≥80% to 100%),B (Fresh weight inhibition rate≥260% to <80%),A (Fresh weight inhibition rate≥80% to 100%),B (Fresh weight inhibition rate≥260% to <80%),–,–,–,–,–
Cc1nnc(NC(=O)c2ccc(S(C)(=O)=O)c(SCC(F)F)c2Cl)o1 [Compound 3-102],A (Fresh weight inhibition rate≥80% to 100%),A (Fresh weight inhibition rate≥80% to 100%),A (Fresh weight inhibition rate≥80% to 100%),A (Fresh weight inhibition rate≥80% to 100%),A (Fresh weight inhibition rate≥80% to 100%),–,–,–,–,–
CCCS(=O)(=O)c1c(S(C)(=O)=O)ccc(C(=O)Nc2ncnn2C)c1Cl [Compound 2-5],A (Fresh weight inhibition rate≥80% to 100%),A (Fresh weight inhibition rate≥80% to 100%),B (Fresh weight inhibition rate≥260% to <80%),A (Fresh weight inhibition rate≥80% to 100%),B (Fresh weight inhibition rate≥260% to <80%),–,–,–,–,–
CS(=O)(=O)c1ccc(C(=O)Nc2nnco2)c(Cl)c1[S+]([O-])CC(F)(F)F (racemic) [Compound 3-324],A (Fresh weight inhibition rate≥80% to 100%),A (Fresh weight inhibition rate≥80% to 100%),A (Fresh weight inhibition rate≥80% to 100%),A (Fresh weight inhibition rate≥80% to 100%),A (Fresh weight inhibition rate≥80% to 100%),–,–,–,–,–
"CC(C)[S+]([O-])c1c(S(C)(=O)=O)ccc(C(=O)Nc2ncnn2C)c1Cl (single isomer, unassigned) [Compound 2-9]",A (Fresh weight inhibition rate≥80% to 100%),A (Fresh weight inhibition rate≥80% to 100%),A (Fresh weight inhibition rate≥80% to 100%),A (Fresh weight inhibition rate≥80% to 100%),A (Fresh weight inhibition rate≥80% to 100%),–,–,–,–,–
CCC(C)[S+]([O-])c1c(S(C)(=O)=O)ccc(C(=O)Nc2nnc(C)o2)c1Cl (mixture of isomers) [Compound 3-19],A (Fresh weight inhibition rate≥80% to 100%),A (Fresh weight inhibition rate≥80% to 100%),A (Fresh weight inhibition rate≥80% to 100%),A (Fresh weight inhibition rate≥80% to 100%),A (Fresh weight inhibition rate≥80% to 100%),–,–,–,–,–
CCC(C)[S+]([O-])c1c(S(C)(=O)=O)ccc(C(=O)Nc2nnco2)c1Cl (mixture of isomers) [Compound 3-285],A (Fresh weight inhibition rate≥80% to 100%),A (Fresh weight inhibition rate≥80% to 100%),A (Fresh weight inhibition rate≥80% to 100%),A (Fresh weight inhibition rate≥80% to 100%),A (Fresh weight inhibition rate≥80% to 100%),–,–,–,–,–
CS(=O)(=O)c1ccc(C(=O)Nc2nnco2)c(Cl)c1SC1CC1 [Compound 3-303],B (Fresh weight inhibition rate≥260% to <80%),A (Fresh weight inhibition rate≥80% to 100%),A (Fresh weight inhibition rate≥80% to 100%),A (Fresh weight inhibition rate≥80% to 100%),A (Fresh weight inhibition rate≥80% to 100%),–,–,–,–,–
CC(C)Sc1c(S(C)(=O)=O)ccc(C(=O)Nc2nnco2)c1Cl [Compound 3-272],A (Fresh weight inhibition rate≥80% to 100%),A (Fresh weight inhibition rate≥80% to 100%),A (Fresh weight inhibition rate≥80% to 100%),A (Fresh weight inhibition rate≥80% to 100%),C (Fresh weight inhibition rate≥40% to <60%),–,–,–,–,–
CCc1nnc(NC(=O)c2ccc(S(C)(=O)=O)c([S+]([O-])CC(F)F)c2Cl)o1 (racemic) [Compound 3-445],A (Fresh weight inhibition rate≥80% to 100%),A (Fresh weight inhibition rate≥80% to 100%),A (Fresh weight inhibition rate≥80% to 100%),A (Fresh weight inhibition rate≥80% to 100%),A (Fresh weight inhibition rate≥80% to 100%),–,–,–,–,–
"CCC[S+]([O-])c1c(S(C)(=O)=O)ccc(C(=O)Nc2nnco2)c1Cl (centres unmarked) [Compound 3-268, 2-chloro-4-(methylsulfonyl)-N-(1,3,4-oxadiazol-2-yl)-3-(propylsulfinyl)benzamide]",–,–,–,–,–,80 to 100,80 to 100,80 to 100,80 to 100,80 to 100
CS(=O)(=O)c1ccc(C(=O)Nc2nnc(C3CC3)o2)c(Cl)c1[S+]([O-])CCCl (racemic) [Compound 3-727],A (Fresh weight inhibition rate≥80% to 100%),A (Fresh weight inhibition rate≥80% to 100%),A (Fresh weight inhibition rate≥80% to 100%),A (Fresh weight inhibition rate≥80% to 100%),A (Fresh weight inhibition rate≥80% to 100%),–,–,–,–,–
Cn1nnnc1NC(=O)c1ccc(S(C)(=O)=O)c(SCC2CC2)c1Cl [Compound 1-27],A (Fresh weight inhibition rate≥80% to 100%),A (Fresh weight inhibition rate≥80% to 100%),A (Fresh weight inhibition rate≥80% to 100%),A (Fresh weight inhibition rate≥80% to 100%),A (Fresh weight inhibition rate≥80% to 100%),–,–,–,–,–
CCC(C)[S+]([O-])c1c(S(C)(=O)=O)ccc(C(=O)Nc2nnc(C3CC3)o2)c1Cl (mixture of isomers) [Compound 3-633],A (Fresh weight inhibition rate≥80% to 100%),A (Fresh weight inhibition rate≥80% to 100%),A (Fresh weight inhibition rate≥80% to 100%),A (Fresh weight inhibition rate≥80% to 100%),A (Fresh weight inhibition rate≥80% to 100%),–,–,–,–,–
"CCc1nnc(NC(=O)c2ccc(S(C)(=O)=O)c([S+]([O-])C(C)C)c2Cl)o1 (centres unmarked) [Compound 3-389, 2-chloro-N-(5-ethyl-1,3,4-oxadiazol-2-yl)-3-(isopropylsulfinyl)-4-(methylsulfonyl)benzamide]",–,–,–,–,–,80 to 100,80 to 100,80 to 100,80 to 100,80 to 100
C=CC[S+]([O-])c1c(S(C)(=O)=O)ccc(C(=O)Nc2nnc(C)o2)c1Cl (racemic) [Compound 3-113],A (Fresh weight inhibition rate≥80% to 100%),A (Fresh weight inhibition rate≥80% to 100%),A (Fresh weight inhibition rate≥80% to 100%),A (Fresh weight inhibition rate≥80% to 100%),A (Fresh weight inhibition rate≥80% to 100%),–,–,–,–,–

# — patent US20250223268A1, “4-Methylsulfonylbenzamide Compound, Preparation Method, Herbicidal Composition And Use” (Jiangsu Flag Chemical Industry Co., Ltd., priority 2022, published 2025)
